Key:
[1] = stability in an oxidative environment; assay type: physicochemical
lymphoid malignancies = conditions: cited from earlier work
[2] = test system: small-cell lung cancer (SCLC); conditions: cited from earlier work
[3] = test system: pro-apoptotic effects of other chemotherapeutic agents; conditions: cited from earlier work

SMILES	degradation in an oxidative environment [1]	single-agent activity (lymphoid malignancies)	single-agent activity [2]	potentiation of pro-apoptotic effects of other chemotherapeutic agents [3]
CC1(C)CCC(c2ccc(Cl)cc2)=C(CN2CCN(c3ccc(C(=O)NS(=O)(=O)c4ccc(N[C@H](CCN5CCOCC5)CSc5ccccc5)c(S(=O)(=O)C(F)(F)F)c4)cc3)CC2)C1 [ABT-263]	susceptible to degradation			
CN(C)CC[C@H](CSc1ccccc1)Nc1ccc(S(=O)(=O)NC(=O)c2ccc(N3CCN(Cc4ccccc4-c4ccc(Cl)cc4)CC3)cc2)cc1[N+](=O)[O-] [ABT-737, N-(4-(4-((4′-chloro-(1,1′-biphenyl)-2-yl)methyl)piperazin-1-yl)benzoyl)-4-(((1R)-3-(dimethylamino)-1-((phenylsulfanyl)methyl)propyl)amino)-3-nitrobenzene-sulfonamide]		single-agent activity	single-agent activity	potentiates
